Patent publication US20170088520A1, “DEUBIQUITINASE INHIBITORS” (PharmAkea, Inc., priority 2014, published 2017)

What was measured:
Assay type in all cases: cell-based
[1] = system: PARP cleavage in cells (NCI-H929, Z138, MM.1S, A-375); assay: Analysis of PARP cleavage by Western blotting; settings: compound tested at 5 μM; Western blot
Procedure: (§1) Example B-2: Analysis of Md-1 Expression and PARP Cleavage
(§2) The ability of test compounds to decrease expression of the tumor promoting protein, Mcl-1, and to induce the inactivation/cleavage of the PARP protein is evaluated in cells (NCI-H929, Z138, MM.1S, A-375) by Western blotting. Cells are plated and treated as described in the HA-Ub-VS cell labeling assay (see above). A portion of the cleared lysate (15-50 μl) is run on an SDS-polyacrylamide gel to separate proteins and then transferred to nitrocellulose. After transfer to nitrocellulose, the proteins are detected by probing the blot with anti-Mcl-1 and anti-PARP antibodies followed by secondary antibodies coupled to IRdye 800 and IRdye 680 and visualization and quantitation using a LiCor Odyssey machine. Activity of the test compound is identified as a significant decrease in Mcl-1 expression relative to the vehicle treated cells and to the appearance of a cleaved fragment of PARP relative to the vehicle-treated cells.
(§3) The following compounds were tested in the above assays at 5 μM: […]

[2] = target: T1, DUB activity in cells (NCI-H929, Z138, MM.1S, A375) (Homo sapiens, UniProt Q93008); assay: HA-Ubiquitin-Vinylsulfone (HA-Ub-VS) cell labeling assay; settings: compound tested at 5 μM; HA-Ub-VS labeling of USP9x in cells
T1 construct: endogenous in cells; host or cells: NCI-H929, Z138, MM.1S, A375
Procedure: Example B-1: HA-Ubiqutin-Vinylsulfone (HA-Ub-VS) Cell Labeling
Inhibitition of DUB activity is measured in cells (NCI-H929, Z138, MM.1S, A375) using a hemaglutinin-ubiquitin-vinylsulfone (HA-Ub-VS) labeling assay. Briefly, 1-2×10^6 cells are plated in 12-well plates in 1 ml complete growth media and 250 μl of test compound in 0.5% dimethylsulfoxide (or DMSO control) is added to each well. Plates are incubated at 37° C., 5% CO2 for 2-6 hours before cells are harvested into eppendorf tubes, washed once in PBS and resuspended in 100 μl cold lysis buffer (50 mM Tris pH 8, 150 mM NaCl, 0.5% NP-40, 2 mM phenylmethylsulfonyl fluoride and complete protease inhibitor tablet). Resupended cells are frozen on dry ice, then thawed and incubated on ice for 15 minutes. Tubes are centrifuged for 10 minutes at 14,000 rpm at 4° C. and the cleared supernatants transferred to clean tubes. […] The samples are incubated 15-60 min at 37° C. before the addition of SDS gel loading buffer. Proteins are separated by SDS-PAGE, transferred to nitrocellulose and the blot probed with anti-HA antibody and anti-β-actin antibodies. The HA and β-actin antibodies are detected using secondary antibodies coupled to IRdye 800 or IRdye 680 and visualized and quantitated using the LiCor Odyssey machine.
as §3

[3] = system: Mcl-1 expression in cells (NCI-H929, Z138, MM.1S, A-375); assay: Analysis of Mcl-1 expression by Western blotting; settings: compound tested at 5 μM; Western blot
Procedure: as §1, §2, §3

T1 sequence (Q93008 whole entry): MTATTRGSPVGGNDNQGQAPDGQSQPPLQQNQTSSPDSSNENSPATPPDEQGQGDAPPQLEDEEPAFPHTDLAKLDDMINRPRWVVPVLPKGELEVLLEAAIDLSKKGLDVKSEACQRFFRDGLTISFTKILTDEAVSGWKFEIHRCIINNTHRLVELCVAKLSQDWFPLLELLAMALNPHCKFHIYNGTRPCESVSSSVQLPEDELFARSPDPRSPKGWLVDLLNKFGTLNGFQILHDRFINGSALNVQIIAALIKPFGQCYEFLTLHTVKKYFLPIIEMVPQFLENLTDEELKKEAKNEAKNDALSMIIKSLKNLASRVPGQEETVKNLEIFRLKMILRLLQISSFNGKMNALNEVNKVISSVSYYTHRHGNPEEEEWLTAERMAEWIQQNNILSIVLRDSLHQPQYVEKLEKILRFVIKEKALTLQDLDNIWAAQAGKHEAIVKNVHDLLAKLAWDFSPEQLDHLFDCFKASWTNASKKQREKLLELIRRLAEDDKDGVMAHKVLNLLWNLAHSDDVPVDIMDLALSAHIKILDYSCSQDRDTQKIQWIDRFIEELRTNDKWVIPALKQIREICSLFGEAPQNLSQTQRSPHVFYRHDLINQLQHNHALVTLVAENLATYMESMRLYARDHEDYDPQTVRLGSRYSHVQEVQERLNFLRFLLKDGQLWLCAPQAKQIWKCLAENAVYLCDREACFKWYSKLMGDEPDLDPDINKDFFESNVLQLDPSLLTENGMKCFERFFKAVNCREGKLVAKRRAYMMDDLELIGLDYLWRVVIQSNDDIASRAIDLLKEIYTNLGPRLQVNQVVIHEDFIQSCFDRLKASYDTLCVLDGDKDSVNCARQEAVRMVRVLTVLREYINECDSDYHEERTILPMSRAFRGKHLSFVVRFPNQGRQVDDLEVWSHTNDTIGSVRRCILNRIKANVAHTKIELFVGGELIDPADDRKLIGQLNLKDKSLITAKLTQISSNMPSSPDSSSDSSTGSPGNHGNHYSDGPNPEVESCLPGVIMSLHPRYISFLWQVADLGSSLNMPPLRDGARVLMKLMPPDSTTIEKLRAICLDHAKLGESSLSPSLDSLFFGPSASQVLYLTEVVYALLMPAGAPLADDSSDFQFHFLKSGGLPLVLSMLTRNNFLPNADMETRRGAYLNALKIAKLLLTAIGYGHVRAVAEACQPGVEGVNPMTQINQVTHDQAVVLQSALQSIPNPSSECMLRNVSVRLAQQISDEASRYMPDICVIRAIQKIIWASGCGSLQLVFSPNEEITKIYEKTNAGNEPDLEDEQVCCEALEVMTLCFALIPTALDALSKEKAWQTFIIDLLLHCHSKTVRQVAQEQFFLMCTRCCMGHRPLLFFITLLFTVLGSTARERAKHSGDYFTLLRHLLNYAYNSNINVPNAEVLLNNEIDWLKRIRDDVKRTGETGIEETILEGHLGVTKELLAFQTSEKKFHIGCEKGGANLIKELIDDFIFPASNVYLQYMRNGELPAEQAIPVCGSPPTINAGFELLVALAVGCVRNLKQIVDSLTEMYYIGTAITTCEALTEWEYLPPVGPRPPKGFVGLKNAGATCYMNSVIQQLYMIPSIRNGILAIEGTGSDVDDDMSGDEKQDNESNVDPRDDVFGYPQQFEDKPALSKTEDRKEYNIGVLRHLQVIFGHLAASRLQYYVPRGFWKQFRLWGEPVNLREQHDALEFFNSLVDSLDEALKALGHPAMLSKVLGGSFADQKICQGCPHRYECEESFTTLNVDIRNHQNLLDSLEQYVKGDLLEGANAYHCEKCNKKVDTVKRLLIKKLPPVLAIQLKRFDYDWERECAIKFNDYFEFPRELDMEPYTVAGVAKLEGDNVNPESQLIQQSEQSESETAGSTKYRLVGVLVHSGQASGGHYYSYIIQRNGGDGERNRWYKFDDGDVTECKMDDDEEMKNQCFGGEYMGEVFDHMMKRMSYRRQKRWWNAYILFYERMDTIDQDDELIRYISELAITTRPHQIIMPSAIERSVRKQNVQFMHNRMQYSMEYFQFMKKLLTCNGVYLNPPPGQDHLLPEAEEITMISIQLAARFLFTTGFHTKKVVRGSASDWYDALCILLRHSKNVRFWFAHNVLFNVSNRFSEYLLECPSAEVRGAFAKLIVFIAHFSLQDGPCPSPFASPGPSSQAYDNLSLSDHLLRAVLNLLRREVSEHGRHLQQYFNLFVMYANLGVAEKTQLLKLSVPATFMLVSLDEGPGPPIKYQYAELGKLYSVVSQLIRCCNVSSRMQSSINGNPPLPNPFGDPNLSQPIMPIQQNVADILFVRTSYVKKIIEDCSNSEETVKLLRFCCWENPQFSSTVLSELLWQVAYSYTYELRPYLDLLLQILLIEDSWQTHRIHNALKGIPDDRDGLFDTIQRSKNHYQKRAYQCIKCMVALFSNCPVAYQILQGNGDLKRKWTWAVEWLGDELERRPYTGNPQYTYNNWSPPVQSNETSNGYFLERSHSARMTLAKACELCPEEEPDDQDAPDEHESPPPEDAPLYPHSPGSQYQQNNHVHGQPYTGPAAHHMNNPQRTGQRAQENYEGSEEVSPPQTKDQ

SMILES | PARP cleavage % Inhibition [1] | inhibition at 5 µM [2] | inhibition at 5 µM [3]
N#C/C(=C\c1cccc(Br)n1)C(=O)NC1(c2ccccc2)CCCC1 [Compound 1, (E)-3-(6-Bromopyridin-2-yl)-2-cyano-N-(1-phenylcyclopentyl)acrylamide] | A (A is ≧75% inhibition) | ≥ 75% | ≥ 75%
N#C/C(=C\c1cccc(Br)n1)C(=O)NC1(c2ccccc2)CC1 [Compound 2, (E)-3-(6-Bromopyridin-2-yl)-2-cyano-N-(1-phenylcyclopropyl)acrylamide] | C (C is 25% to 50% inhibition) | < 25% | < 25%
CN(C(=O)/C(C#N)=C/c1cccc(Br)n1)C1(c2ccccc2)CCCC1 [Compound 2-82, (E)-3-(6-bromopyridin-2-yl)-2-cyano-N-methyl-N-(1-phenylcyclopentyl)acrylamide] | A (A is ≧75% inhibition) | 50 to 75% | ≥ 75%
N#C/C(=C\c1cccc(Br)n1)C(=O)NC1(c2ccccc2)CCC1 [Compound 3, (E)-3-(6-Bromopyridin-2-yl)-2-cyano-N-(1-phenylcyclobutyl)acrylamide] | B (B is 50% to 75% inhibition) | < 25% | < 25%
N#C/C(=C\c1cccc(Br)n1)C(=O)NC1(c2cccnc2)CCCC1 [Compound 3-1, (E)-3-(6-bromopyridin-2-yl)-2-cyano-N-(1-(pyridin-3-yl)cyclopentyl) acrylamide] | B (B is 50% to 75% inhibition) | < 25% | < 25%
N#C/C(=C\c1cccc(Br)n1)C(=O)NC1(c2ccncc2)CCCC1 [Compound 3-2, (E)-3-(6-bromopyridin-2-yl)-2-cyano-N-(1-(pyridin-4-yl)cyclopentyl) acrylamide] | A (A is ≧75% inhibition) | 25 to 50% | 50 to 75%
N#C/C(=C\c1ncc(Br)cc1Br)C(=O)NC1(c2ccncc2)CCCC1 [Compound 3-3, (E)-2-cyano-3-(3,5-dibromopyridin-2-yl)-N-(1-(pyridin-4-yl)cyclopentyl)acrylamide] | A (A is ≧75% inhibition) | 50 to 75% | ≥ 75%
N#C/C(=C\c1cccc(C#CCn2cccn2)n1)C(=O)NC1(c2ccncc2)CCCC1 [Compound 3-4, (E)-3-(6-(3-(1H-pyrazol-1-yl)prop-1-yn-1-yl)pyridin-2-yl)-2-cyano-N-(1-(pyridin-4-yl)cyclopentyl)acrylamide] | B (B is 50% to 75% inhibition) | < 25% | < 25%
N#C/C(=C\c1cccc(C#CC2(O)CCCC2)n1)C(=O)NC1(c2ccncc2)CCCC1 [Compound 3-5] | D (D is <25% inhibition) | < 25% | < 25%
N#C/C(=C\c1cccc(Br)n1)C(=O)NC1(c2ccnc(Cl)c2)CCCC1 [Compound 3-6, (E)-3-(6-bromopyridin-2-yl)-N-(1-(2-chloropyridin-4-yl)cyclopentyl)-2-cyanoacrylamide] | A (A is ≧75% inhibition) | 50 to 75% | 50 to 75%
N#C/C(=C\c1cccc(Br)n1)C(=O)NC1(c2ccnc(F)c2)CCCC1 [Compound 3-7, (E)-3-(6-bromopyridin-2-yl)-2-cyano-N-(1-(2-fluoropyridin-4-yl)cyclopentyl)acrylamide] | B (B is 50% to 75% inhibition) | 25 to 50% | < 25%
N#C/C(=C\c1ncc(Br)cc1Br)C(=O)NC1(c2ccccc2)CCCC1 [Compound 4, (E)-3-(3,5-Dibromopyridin-2-yl)-2-cyano-N-(1-phenylcyclopentyl)acrylamide] | A (A is ≧75% inhibition) | ≥ 75% | ≥ 75%
N#C/C(=C\c1ncc(Cl)cc1F)C(=O)NC1(c2ccccc2)CCCC1 [Compound 5, (E)-3-(3-Fluoro-5-chloropyridin-2-yl)-2-cyano-N-(1-phenylcyclopentyl)acrylamide] | A (A is ≧75% inhibition) | ≥ 75% | ≥ 75%
N#C/C(=C\c1nc(Br)ccc1F)C(=O)NC1(c2ccccc2)CCCC1 [Compound 6, (E)-3-(3-Fluoro-6-bromopyridin-2-yl)-2-cyano-N-(1-phenylcyclopentyl)acrylamide] | A (A is ≧75% inhibition) | ≥ 75% | ≥ 75%
N#C/C(=C\c1nc(Cl)ccc1Cl)C(=O)NC1(c2ccccc2)CCCC1 [Compound 7, (E)-3-(3,6-Dichloropyridin-2-yl)-2-cyano-N-(1-phenylcyclopentyl)acrylamide] | A (A is ≧75% inhibition) | 50 to 75% | ≥ 75%
N#C/C(=C\c1ncccc1F)C(=O)NC1(c2ccccc2)CCCC1 [Compound 8, (E)-3-(3-Fluoropyridin-2-yl)-2-cyano-N-(1-phenylcyclopentyl)acrylamide] | D (D is <25% inhibition) | < 25% | < 25%
N#C/C(=C\c1ncc(Br)cc1F)C(=O)NC1(c2ccccc2)CCCC1 [Compound 9, (E)-3-(5-Bromo-3-fluoropyridin-2-yl)-2-cyano-N-(1-phenylcyclopentyl)acrylamide] | A (A is ≧75% inhibition) | ≥ 75% | ≥ 75%
N#C/C(=C\c1nc(Cl)ccc1Br)C(=O)NC1(c2ccccc2)CCCC1 [Compound 10, (E)-3-(3-Bromo-6-chloropyridin-2-yl)-2-cyano-N-(1-phenylcyclopentyl)acrylamide] | B (B is 50% to 75% inhibition) | 50 to 75% | ≥ 75%
N#C/C(=C\c1ccc(Cl)c(Cl)c1)C(=O)NC1(c2ccccc2)CCCC1 [Compound 11, (E)-3-(3,4-Dichlorophenyl)-2-cyano-N-(1-phenylcyclopentyl)acrylamide] | B (B is 50% to 75% inhibition) | 25 to 50% | 25 to 50%
N#C/C(=C\c1ccc(Cl)c(F)c1)C(=O)NC1(c2ccccc2)CCCC1 [Compound 12, (E)-3-(4-Chloro-3-fluorophenyl)-2-cyano-N-(1-phenylcyclopentyl)acrylamide] | C (C is 25% to 50% inhibition) | 25 to 50% | < 25%
N#C/C(=C\c1ccc(O)cc1)C(=O)NC1(c2ccccc2)CCCC1 [Compound 13, (E)-3-(4-Hydroxyphenyl)-2-cyano-N-(1-phenylcyclopentyl)acrylamide] | D (D is <25% inhibition) | < 25% | < 25%
COc1ccc(/C=C(\C#N)C(=O)NC2(c3ccccc3)CCCC2)cc1O [Compound 14, (E)-3-(3-Hydroxy-4-methoxyphenyl)-2-cyano-N-(1-phenylcyclopentyl)acrylamide] | D (D is <25% inhibition) | < 25% | < 25%
N#C/C(=C\c1cccc(Br)n1)C(=O)NC1(c2ccc(Br)cc2)CCCC1 [Compound 15, (E)-N-(1-(4-bromophenyl)cyclopentyl)-3-(6-bromopyridin-2-yl)-2-cyanoacrylamide] | A (A is ≧75% inhibition) | ≥ 75% | ≥ 75%
